Source: patent US6872724B2, “Polymorphs with tyrosine kinase activity” (Merck & Co., Inc., priority 2002, dated 2005)

Molecular target: T1, human KDR (Homo sapiens, UniProt P35968)
T1 construct: cloning the cytoplasmic domain of the KDR kinase as an in frame fusion at the carboxy terminus of the GST gene; made in house; host or cells: Spodoptera frugiperda (Sf21) insect cells, baculovirus vector pAcG2T
Test: VEGF receptor kinase assay
Format: biochemical
Experimental: I. VEGF Receptor Kinase Assay
VEGF receptor kinase activity is measured by incorporation of radio-labeled phosphate into polyglutamic acid, tyrosine, 4:1 (pEY) substrate. The phosphorylated pEY product is trapped onto a filter membrane and the incorporation of radio-labeled phosphate quantified by scintillation counting.
VEGF Receptor Kinase The intracellular tyrosine kinase domains of human KDR (Terman, B. I. et al. Oncogene (1991) vol. 6, pp. 1677-1683.) and Flt-1 (Shibuya, M. et al. Oncogene (1990) vol. 5, pp. 519-524) were cloned as glutathione S-transferase (GST) gene fusion proteins. This was accomplished by cloning the cytoplasmic domain of the KDR kinase as an in frame fusion at the carboxy terminus of the GST gene. Soluble recombinant GST-kinase domain fusion proteins were expressed in Spodoptera frugiperda (Sf21) insect cells (Invitrogen) using a baculovirus expression vector (pAcG2T, Pharmingen). […]

T1 sequence (P35968 786-1356 limits assumed): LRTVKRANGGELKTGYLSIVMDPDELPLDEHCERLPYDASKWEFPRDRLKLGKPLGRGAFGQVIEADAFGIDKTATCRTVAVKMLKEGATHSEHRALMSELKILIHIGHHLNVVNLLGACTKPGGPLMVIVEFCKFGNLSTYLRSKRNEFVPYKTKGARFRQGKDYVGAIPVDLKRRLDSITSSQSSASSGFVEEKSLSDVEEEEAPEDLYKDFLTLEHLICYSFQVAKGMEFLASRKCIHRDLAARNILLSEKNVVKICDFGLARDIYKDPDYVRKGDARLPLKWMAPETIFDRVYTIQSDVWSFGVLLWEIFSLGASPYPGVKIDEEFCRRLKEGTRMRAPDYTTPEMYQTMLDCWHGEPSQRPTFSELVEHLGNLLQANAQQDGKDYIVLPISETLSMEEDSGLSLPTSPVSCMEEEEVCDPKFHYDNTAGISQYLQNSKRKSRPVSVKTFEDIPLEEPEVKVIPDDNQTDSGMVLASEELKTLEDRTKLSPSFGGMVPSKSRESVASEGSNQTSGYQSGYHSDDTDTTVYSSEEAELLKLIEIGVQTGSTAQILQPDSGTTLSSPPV

kinase inhibitory activity: inhibits the kinase KDR
Compound: CNC(=O)N1CCN(Cc2ccnc(Nc3ncc(C#N)s3)c2)CC1 [Compound 4-4, 4-[2-(5-cyano-thiazol-2-ylamino)-pyridin-4-ylmethyl]-piperazine-1-carboxylic acid methylamide]
